Among the data in ChEMBL document CHEMBL1134429, “The development of a potential single photon emission computed tomography (SPECT) imaging agent for the corticotropin-releasing hormone receptor type” (Bioorg Med Chem Lett, 2001) are Ki values, retold here.

This assay has as its target T1, Corticotropin-releasing factor receptor 1 (Rattus norvegicus, UniProt P35353).
T1 sequence (P35353 whole entry): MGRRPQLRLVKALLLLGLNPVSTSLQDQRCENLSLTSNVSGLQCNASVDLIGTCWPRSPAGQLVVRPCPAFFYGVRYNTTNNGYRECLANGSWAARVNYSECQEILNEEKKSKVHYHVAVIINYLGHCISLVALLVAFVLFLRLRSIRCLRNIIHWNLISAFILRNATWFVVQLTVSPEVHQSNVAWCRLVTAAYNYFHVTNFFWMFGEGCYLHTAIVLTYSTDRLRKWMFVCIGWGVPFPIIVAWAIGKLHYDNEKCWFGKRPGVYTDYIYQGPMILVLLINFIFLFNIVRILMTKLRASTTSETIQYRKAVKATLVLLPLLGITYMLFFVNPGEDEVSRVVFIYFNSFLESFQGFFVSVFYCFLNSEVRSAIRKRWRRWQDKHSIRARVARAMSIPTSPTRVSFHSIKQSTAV
As to the kind of experiment: Binding affinity towards Corticotropin releasing hormone receptor type 1 of rat cerebellum using [125I]Tyr-sauvagine as radioligand. It counts as tissue-based.

Turning to `CCCN(CC1CC1)c1nc(C)nc(Nc2c(Cl)cc(Cl)cc2Cl)c1Cl`, the affinity, expressed as Ki, was 31 nM. Next, `CCCN(CC1CC1)c1nc(C)nc(Nc2c(Cl)cc(I)cc2Cl)c1Cl`: 14 nM.
